Measurements reported in US20050186137A1, “Novelty-induced hypophagia-based assays for identifying agents to treat anxiety and depression” (priority 2003, published 2005).

Test system: BALB/cJ mice
Assay: Prepulse inhibition of startle
Type: in vivo, mouse
Experimental: For chronic fluoxetine studies in BALB/cJ mice, 60 male BALB/cJ mice were tested in the OF for 30 min on days 19 or 20 of chronic fluoxetine treatment. Mice were then pretested and tested in the modified FST on days 21 and 22, respectively. Animals were then allowed to adapt to being singly housed, and were trained for NIH on days 25-27. Home cage and novel cage testing occurred on days 28 and 29, respectively. Mice were then assessed for PPI on days 34 or 35.
Studies of subchronic fluoxetine were conducted using separate groups of 60 male BALB/cJ mice to prevent fluoxetine treatment from exceeding one week. One group was tested in the OF after one day of subchronic fluoxetine treatment. Mice were then pretested after 6 and tested after 7 days of subchronic fluoxetine treatment in the modified FST. A second group of BALB/cJ mice began fluoxetine treatment after being singly housed. They were then tested in the NIH test after 4 (home) and 5 (novel) days of subchronic fluoxetine treatment. A third group was tested for PPI after one or two days of subchronic fluoxetine treatment.
Prepulse Inhibition: Startle experiments were performed in MED-Associates chambers. Nonrestrictive Plexiglas cylinders 5 cm in diameter rested on a Plexiglas platform with a transducer amplifier. The sound-dampening isolation chambers were ventilated, well-lit, and equipped with an acoustic stimulator. Data acquisition was performed using Med-Associates software.
Five different trial types were presented in the test session: a 40-msec broadband 120 dB burst (PULSE ALONE trial); three different PREPULSE+PULSE trials in which 20-msec long 3 dB (pp3), 6 dB (pp6), or 12 dB (pp12) stimuli above a 70 dB background preceded the 120 dB pulse by 100 msec (onset to onset), and a NO STIMULUS trial, in which only the background noise was presented. Trials were presented in a pseudo-random order. A variable interval of 10-20 seconds separated trials.
The test session consisted of 62 test trials. The session began with a 10 min acclimation period, followed by four consecutive blocks of test trials. Blocks one and four consisted of six consecutive PULSE ALONE trials, while blocks two and three contained six PULSE ALONE trials, five pp3+p120 trials, five pp6+p120 trials, five pp12+p120 trials, and four NO STIMULUS trials. Analyses were performed using average values for each trial type.
Prepulse Inhibition: PPI was calculated as the averaged startle magnitude caused by PULSE ALONE trials from blocks two and three, minus the averaged startle magnitude caused by the prepulse-pulse trials, all divided by the averaged PULSE ALONE values from blocks two and three. The resulting value was multiplied by 100 and presented as a percent PPI value. Four-factor ANOVAs with fluoxetine and RU24969 as between subjects factors and prepulse intensity and block as within subjects variables assessed percent PPI levels. Interactions were resolved using post-hoc ANOVAs with adjusted p-values, and/or Newman-Keuls post-hoc tests.

CNCCC(Oc1ccc(C(F)(F)F)cc1)c1ccccc1 (stereo not drawn) [fluoxetine]
PPI in RU24969-treated mice (chronic 10 mg/kg/day fluoxetine, 12 dB prepulse intensity): increased PPI relative to RU24969-treated mice receiving 0 and 18 mg/kg/day fluoxetine
Startle reactivity, interactions of RU24969 with fluoxetine (chronic fluoxetine): no interactions
RU24969-induced disruption of PPI (chronic fluoxetine 10, 18, 25 mg/kg/day, 10 mg/kg RU24969, 3, 6, 12 dB prepulse): RU24969 disrupted PPI in control mice, but not mice treated with any dose of fluoxetine
PPI, fluoxetine alone (chronic fluoxetine without RU24969): No effects
PPI, interactions of RU24969 with fluoxetine (subchronic fluoxetine (1-2 days)): No interactions
startle reactivity in the second and third blocks (subchronic fluoxetine study (1-2 days), 10 mg/kg RU24969): no effects
